Results: patent US20180228124A1, “ANIMAL LITTER COMPRISING CINNAMIC AND/OR ROSMARINIC COMPOUNDS” (The Clorox Company, priority 2017, published 2018)

Test system: ammonia formation
Experiment: Ammonia formation in sodium bentonite clay litter contacted with feline urine, monitored daily
Conditions: for ammonia at day 11 / inhibition of ammonia formation: FIG. 2; for Day 11 NH3 PPM (mean): treatment dosed at 0.5 g per 100 g of litter, FIG. 3 / FIG. 4 data; for ammonia formation versus virgin clay litter control: 0.5 g per 100 g of litter, FIG. 3; for inhibition of ammonia formation: 0.02 g per 100 g of litter (0.02% by weight)
Description: The efficacy of various anti-oxidant rich spices was tested for ability to inhibit ammonia growth in litter compositions. FIG. 1 illustrates the results for each test that was performed. Each litter substrate included sodium bentonite clay. A control included virgin clay, with no added spice. Each of the other samples tested included a particular spice, dosed onto or into the clay litter substrate at 1.5 g per 100 g of clay substrate (a 1.5% loading of each of the tested spices). The tested spices were cinnamon, peppermint, rosemary, rubbing sage, spearmint, star anise, sumac, thyme, and turmeric. A control was also tested that included no spice at all. Each sample was contacted with 20 mL of feline urine, and then monitored over a period of 11 days, with the mean PPM of ammonia recorded for each day.
Each of the treatments tested in FIG. 3 were dosed at 0.5 g per 100 g of litter. Many of the other treatments tested were similarly dosed, unless stated otherwise (i.e., 0.5 g per 100 g of litter).

O=C(O)/C=C/c1ccc(O)c(O)c1 [Caffeic acid, Caffeic Acid]
ammonia at day 11 (0.5% caffeic acid (0.5 g per 100 g of litter)): less than 60 ppm
ammonia at day 11 (1% caffeic acid (1 g per 100 g of litter)): less than 40 ppm
Day 11 NH3 PPM (mean): 47.894 PPM

O=C/C=C/c1ccccc1 [Cinnamaldehyde]
Day 11 NH3 PPM (mean): 4.150 PPM

CCOC(=O)/C=C/c1ccccc1 [Ethyl cinnamate, Ethyl Cinnamate, reference compound]
ammonia formation versus virgin clay litter control: promotes ammonia (odor) formation
Day 11 NH3 PPM (mean): 126.324 PPM

COc1cc(/C=C/C(=O)O)ccc1O [Ferulic acid, Ferulic Acid]
Day 11 NH3 PPM (mean): 62.182 PPM

O=C(O)CCc1ccccc1 [Hydrocinnamic acid]
Day 11 NH3 PPM (mean): 45.720 PPM

O=C(/C=C/c1ccc(O)c(O)c1)O[C@H](Cc1ccc(O)c(O)c1)C(=O)O [Rosmarinic acid, Rosmarinic Acid]
efficacy of odor inhibition compared with 0.44% borate treated litter (0.5% rosmarinic acid, FIG. 4): comparable in efficacy to the borate treated litter substrate
Day 11 NH3 PPM (mean): 20-30 PPM

COc1cc(/C=C/C(=O)O)cc(OC)c1O [Sinapic acid, Sinapic Acid]
Day 11 NH3 PPM (mean): 38.428 PPM

O=C(O)/C=C/c1ccccc1 [Trans-cinnamic acid, Trans-Cinnamic Acid]
Day 11 NH3 PPM (mean): 4.493 PPM

O.O.O.O.O.O.O.O.O.O.O.O.O=S(=O)([O-])[O-].O=S(=O)([O-])[O-].[Al+3].[K+] [alum, hydrated potassium aluminum sulfate, reference compound]
ammonia formation versus virgin clay litter control: better than the virgin clay litter control

CC(C)c1cc2c(c(O)c1O)[C@@]1(C(=O)O)CCCC(C)(C)[C@@H]1CC2 [carnosic acid, Carnosic Acid]
inhibition of ammonia formation: significant inhibition of ammonia formation

O=C(O)/C=C/c1ccc(O)cc1 [p-coumaric acid, p-Coumaric Acid]
Day 11 NH3 PPM (mean): 26.199 PPM

CC(O)C(=O)[O-].[Ag+] (stereo not shown) [silver lactate, reference compound]
ammonia formation versus virgin clay litter control: better than the virgin clay litter control

O=C([O-])[O-].O=C([O-])[O-].OO.OO.OO.[Na+].[Na+].[Na+].[Na+] [sodium percarbonate, reference compound]
ammonia formation versus virgin clay litter control: better than the virgin clay litter control

C[C@H]1[C@H](C)CC[C@]2(C(=O)O)CC[C@]3(C)C(=CC[C@@H]4[C@@]5(C)CC[C@H](O)C(C)(C)[C@@H]5CC[C@]43C)[C@H]12 [ursolic acid, Ursolic Acid]
inhibition of ammonia formation: significant inhibition of ammonia formation

borate [reference compound]
ammonia at day 11 (litter substrate treated with 0.44% borate): 76 ppm
